Source: US6770597B2, “Benzohydrazide derivatives as herbicides and desiccant compositions containing them” (Ishihara Sangyo Kaisha, Ltd., priority 2002, dated 2004)

Legend:
Assay type in all cases: in vivo
[1] = test system: upland rice (Oryza sp., var.Cocodrie, RICE); experiment: Greenhouse herbicide screen, pre-emerge application, crop damage rating; conditions: PRE emergent, 14 days after application, rating scale 0-100
Description: (§1) A standard greenhouse herbicide activity screening system was used to evaluate the herbicidal efficacy and crop safety of these test compounds. Seven broadleaf weed species including redroot pigweed (Amaranthus retrofiexus, AMARE), velvetleaf (Abutilon theophrasti, ABUTH), sicklepod (Cassia obtusifolia, CASOB), ivyleaf morningglory (Ipomoea hederacea, IPOHE), lambsquarters (Chenopodium album, CHEAL), common ragweed (Ambrosia artemisiifolia L., AMBEL), and cocklebur (Xanthium strumarium, XANST) were used as test species. Four grass weed species including green foxtail (Setaria viridis, SETVI), barnyardgrass (Echinochloa crus-galli, ECHCG), johnsongrass (Sorghum halepense, SORHA), and large crabgrass (Digitaria sanguinalis, DIGSA) were also used. In addition, four crop species, field corn (Zea mays L., var. Dekalb 535, CORN), soybean (Glycine max L., var. Pella 86, SOY), upland rice (Oryza sp., var.Cocodrie, RICE) and wheat (Triticum aestivum L.) were included.
(§2) All plants were grown in 10 cm square plastic pots which were filled with a sandy loam soil mix. For pre-emerge tests, seeds were planted one day prior to application of the test compounds. For post-emerge tests, seeds were planted 8-21 days prior to the test to allow emergence and good foliage development prior to application of the test substances. At the time of the post-emerge application, plants of all species were usually at the 2-3 leaf stage of development.
(§3) All test compounds were dissolved in acetone and applied to the test units in a volume of 187 l/ha. Test materials were applied at rates ranging from 15 g ai/ha to 1000 g ai/ha using a track sprayer equipped with a TJ8001E even flow flat fan spray nozzle. Plants were arranged on a shelf so that the top of the canopy (post-emerge) or top of the soil surface (pre-emerge) was 40-45 cm below the nozzle. Pressurized air was used to force the test solution through the nozzle as it was mechanically advanced (via electrically driven chain drive) over the top of all test plants/pots. This application simulates a typical commercial field herbicide application.
(§4) Pre-emergence tests were top watered immediately after treatment to incorporate the test materials, then routinely top-watered for normal growth. Post-emerge test units were always bottom-watered.
(§5) At 14 days after application of the test materials, phytotoxicity ratings were recorded. A rating scale of 0-100 was used as previously described in Research Methods in Weed Science, 2nd edition, B. Truelove, Ed., Southern Weed Science Society, Auburn University, Auburn, Ala., 1977. Briefly, “0” corresponds to no damage and “100” corresponds to complete death of all plants in the test unit. This scale was used both to determine efficacy against weed species and damage to crop species. Herbicide activity data for various compounds of this invention, which are shown by compound No. in Tables 1-12, are shown in Tables 13 and 14.

[2] = test system: field corn (Zea mays L., var. Dekalb 535, CORN); experiment: as above; conditions: PRE emergent, 14 days after application, rating scale 0-100
Description: as §1, §2, §3, §4, §5

[3] = test system: upland rice (Oryza sp., var.Cocodrie, RICE); experiment: Greenhouse herbicide screen, post-emerge application, crop damage rating; conditions: POST emergent, 14 days after application, scale 0-100
Description: as §1, §2, §3, §4, §5

[4] = test system: field corn (Zea mays L., var. Dekalb 535, CORN); experiment: as above; conditions: POST emergent, 14 days after application, scale 0-100
Description: as §1, §2, §3, §4, §5

[5] = test system: large crabgrass (Digitaria sanguinalis, DIGSA); experiment: Greenhouse herbicide screen, pre-emerge application, phytotoxicity rating; conditions: PRE emergent, 14 days after application, rating scale 0-100
In short: (§6)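 Visual phytotoxicity scored 0–100 at 14 days, where 0 means no damage and 100 all plants dead. Compounds had been applied in acetone by track sprayer at 15–1000 g ai/ha in 187 l/ha.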

[6] = test system: velvetleaf (Abutilon theophrasti, ABUTH); experiment: as above; conditions: PRE emergent, 14 days after application, rating scale 0-100
In short: as §6

[7] = test system: ivyleaf morningglory (Ipomoea hederacea, IPOHE); experiment: as above; conditions: PRE emergent, 14 days after application, rating scale 0-100
In short: as §6

[8] = test system: barnyardgrass (Echinochloa crus-galli, ECHCG); experiment: as above; conditions: PRE emergent, 14 days after application, rating scale 0-100
In short: as §6

[9] = test system: sicklepod (Cassia obtusifolia, CASOB); experiment: as above; conditions: PRE emergent, 14 days after application, rating scale 0-100
In short: as §6

[10] = test system: cocklebur (Xanthium strumarium, XANST); experiment: as above; conditions: PRE emergent, 14 days after application, rating scale 0-100
In short: as §6

[11] = test system: lambsquarters (Chenopodium album, CHEAL); experiment: as above; conditions: PRE emergent, 14 days after application, rating scale 0-100
In short: as §6

[12] = test system: redroot pigweed (Amaranthus retrofiexus, AMARE); experiment: as above; conditions: PRE emergent, 14 days after application, rating scale 0-100
In short: as §6

[13] = test system: common ragweed (Ambrosia artemisiifolia L., AMBEL); experiment: as above; conditions: PRE emergent, 14 days after application, rating scale 0-100
In short: as §6

[14] = test system: johnsongrass (Sorghum halepense, SORHA); experiment: as above; conditions: PRE emergent, 14 days after application, rating scale 0-100
In short: as §6

[15] = test system: green foxtail (Setaria viridis, SETVI); experiment: as above; conditions: PRE emergent, 14 days after application, rating scale 0-100
In short: as §6

[16] = test system: large crabgrass (Digitaria sanguinalis, DIGSA); experiment: Greenhouse herbicide screen, post-emerge application, phytotoxicity rating; conditions: POST emergent, 14 days after application, scale 0-100
In short: as §6

[17] = test system: velvetleaf (Abutilon theophrasti, ABUTH); experiment: as above; conditions: POST emergent, 14 days after application, scale 0-100
In short: as §6

[18] = test system: ivyleaf morningglory (Ipomoea hederacea, IPOHE); experiment: as above; conditions: POST emergent, 14 days after application, scale 0-100
In short: as §6

[19] = test system: barnyardgrass (Echinochloa crus-galli, ECHCG); experiment: as above; conditions: POST emergent, 14 days after application, scale 0-100
In short: as §6

[20] = test system: sicklepod (Cassia obtusifolia, CASOB); experiment: as above; conditions: POST emergent, 14 days after application, scale 0-100
In short: as §6

[21] = test system: cocklebur (Xanthium strumarium, XANST); experiment: as above; conditions: POST emergent, 14 days after application, scale 0-100
In short: as §6

[22] = test system: lambsquarters (Chenopodium album, CHEAL); experiment: as above; conditions: POST emergent, 14 days after application, scale 0-100
In short: as §6

[23] = test system: redroot pigweed (Amaranthus retrofiexus, AMARE); experiment: as above; conditions: POST emergent, 14 days after application
In short: as §6

[24] = test system: common ragweed (Ambrosia artemisiifolia L., AMBEL); experiment: as above; conditions: POST emergent, 14 days after application, scale 0-100
In short: as §6

[25] = test system: johnsongrass (Sorghum halepense, SORHA); experiment: as above; conditions: POST emergent, 14 days after application, scale 0-100
In short: as §6

[26] = test system: green foxtail (Setaria viridis, SETVI); experiment: as above; conditions: POST emergent, 14 days after application, scale 0-100
In short: as §6

[27] = 63 g ai/ha, scale 0-100 (0 no damage, 100 complete death)

In the case of `CC(=NN=C(OC(=O)C(Cl)Cl)c1cc(-n2c(=O)cc(C(F)(F)F)n(C)c2=O)c(F)cc1Cl)C(C)(C)C` [Compound 5-4], the “crop damage rating RICE” value ([1]; 63 g ai/ha) was 55, the “crop damage rating CORN” value ([2]; 63 g ai/ha) was 10 and the “crop damage rating RICE” value ([3]; 63 g ai/ha) was 10. The “crop damage rating CORN” value ([4]; 63 g ai/ha) was 60, the “phytotoxicity rating DIGSA” value ([5]; 63 g ai/ha) was 55 and the “phytotoxicity rating ABUTH” value ([6]; 63 g ai/ha) was 100. The “phytotoxicity rating IPOHE” value ([7]; 63 g ai/ha) was 100, the “phytotoxicity rating ECHCG” value ([8]; 63 g ai/ha) was 40 and the “phytotoxicity rating CASOB” value ([9]; 63 g ai/ha) was 30. For the same molecule, the “phytotoxicity rating XANST” value ([10]; 63 g ai/ha) was 40, the “phytotoxicity rating CHEAL” value ([11]; 63 g ai/ha) was 100 and the “phytotoxicity rating AMARE” value ([12]; 63 g ai/ha) was 100. For the same molecule, the “phytotoxicity rating AMBEL” value ([13]; 63 g ai/ha) was 70, the “phytotoxicity rating SORHA” value ([14]; 63 g ai/ha) was 85 and the “phytotoxicity rating SETVI” value ([15]; 63 g ai/ha) was 50. The “phytotoxicity rating DIGSA” value ([16]; 63 g ai/ha) was 75, the “phytotoxicity rating ABUTH” value ([17]; 63 g ai/ha) was 99 and the “phytotoxicity rating IPOHE” value ([18]; 63 g ai/ha) was 100. The “phytotoxicity rating ECHCO” value ([19]; 63 g ai/ha) was 90, the “phytotoxicity rating CASOB” value ([20]; 63 g ai/ha) was 50 and the “phytotoxicity rating XANST” value ([21]; 63 g ai/ha) was 65. For the same molecule, the “phytotoxicity rating CHEAL” value ([22]; 63 g ai/ha) was 70, the “phytotoxicity rating AMARE” value [23, 27] was 95 and the “phytotoxicity rating AMBEL” value ([24]; 63 g ai/ha) was 95. For the same molecule, the “phytotoxicity rating SORHA” value ([25]; 63 g ai/ha) was 30 and the “phytotoxicity rating SETVI” value ([26]; 63 g ai/ha) was 55.
In the case of `C#CCOC(=NN=C(C(C)(C)C)C(C)(C)C)c1cc(-n2c(=O)cc(C(F)(F)F)n(C)c2=O)c(F)cc1Cl` [Compound 5-7], the “crop damage rating RICE” value ([1]; 63 g ai/ha) was 0, the “crop damage rating RICE” value ([1]; 250 g ai/ha) was 0 and the “crop damage rating CORN” value ([2]; 63 g ai/ha) was 0. The “crop damage rating CORN” value ([2]; 250 g ai/ha) was 10, the “crop damage rating RICE” value ([3]; 63 g ai/ha) was 10 and the “crop damage rating RICE” value ([3]; 250 g ai/ha) was 0. For the same molecule, the “crop damage rating CORN” value ([4]; 63 g ai/ha) was 0, the “crop damage rating CORN” value ([4]; 250 g ai/ha) was 15 and the “phytotoxicity rating DIGSA” value ([5]; 63 g ai/ha) was 0. For the same molecule, the “phytotoxicity rating DIGSA” value ([5]; 250 g ai/ha) was 50, the “phytotoxicity rating ABUTH” value ([6]; 63 g ai/ha) was 50 and the “phytotoxicity rating ABUTH” value ([6]; 250 g ai/ha) was 99. For the same molecule, the “phytotoxicity rating IPOHE” value ([7]; 63 g ai/ha) was 0, the “phytotoxicity rating IPOHE” value ([7]; 250 g ai/ha) was 30 and the “phytotoxicity rating ECHCG” value ([8]; 63 g ai/ha) was 0. The “phytotoxicity rating ECHCG” value ([8]; 250 g ai/ha) was 0, the “phytotoxicity rating CASOB” value ([9]; 63 g ai/ha) was 0 and the “phytotoxicity rating CASOB” value ([9]; 250 g ai/ha) was 50. For the same molecule, the “phytotoxicity rating XANST” value ([10]; 63 g ai/ha) was 0, the “phytotoxicity rating XANST” value ([10]; 250 g ai/ha) was 0 and the “phytotoxicity rating CHEAL” value ([11]; 63 g ai/ha) was 100. For the same molecule, the “phytotoxicity rating CHEAL” value ([11]; 250 g ai/ha) was 100, the “phytotoxicity rating AMARE” value ([12]; 63 g ai/ha) was 60 and the “phytotoxicity rating AMARE” value ([12]; 250 g ai/ha) was 100. The “phytotoxicity rating AMBEL” value ([13]; 63 g ai/ha) was 0, the “phytotoxicity rating AMBEL” value ([13]; 250 g ai/ha) was 50 and the “phytotoxicity rating SORHA” value ([14]; 63 g ai/ha) was 15. The “phytotoxicity rating SORHA” value ([14]; 250 g ai/ha) was 20, the “phytotoxicity rating SETVI” value ([15]; 63 g ai/ha) was 30 and the “phytotoxicity rating SETVI” value ([15]; 250 g ai/ha) was 80. The “phytotoxicity rating DIGSA” value ([16]; 63 g ai/ha) was 0, the “phytotoxicity rating DIGSA” value ([16]; 250 g ai/ha) was 50 and the “phytotoxicity rating ABUTH” value ([17]; 63 g ai/ha) was 30. For the same molecule, the “phytotoxicity rating ABUTH” value ([17]; 250 g ai/ha) was 70, the “phytotoxicity rating IPOHE” value ([18]; 63 g ai/ha) was 60 and the “phytotoxicity rating IPOHE” value ([18]; 250 g ai/ha) was 70. For the same molecule, the “phytotoxicity rating ECHCO” value ([19]; 63 g ai/ha) was 35, the “phytotoxicity rating ECHCO” value ([19]; 250 g ai/ha) was 55 and the “phytotoxicity rating CASOB” value ([20]; 63 g ai/ha) was 50. The “phytotoxicity rating CASOB” value ([20]; 250 g ai/ha) was 50, the “phytotoxicity rating XANST” value ([21]; 63 g ai/ha) was 0 and the “phytotoxicity rating XANST” value ([21]; 250 g ai/ha) was 55. For the same molecule, the “phytotoxicity rating CHEAL” value ([22]; 63 g ai/ha) was 70, the “phytotoxicity rating CHEAL” value ([22]; 250 g ai/ha) was 85 and the “phytotoxicity rating AMARE” value [23, 27] was 70. For the same molecule, the “phytotoxicity rating AMARE” value ([23]; 250 g ai/ha, scale 0-100) was 99, the “phytotoxicity rating AMBEL” value ([24]; 63 g ai/ha) was 50 and the “phytotoxicity rating AMBEL” value ([24]; 250 g ai/ha) was 55. For the same molecule, the “phytotoxicity rating SORHA” value ([25]; 63 g ai/ha) was 0, the “phytotoxicity rating SORHA” value ([25]; 250 g ai/ha) was 15 and the “phytotoxicity rating SETVI” value ([26]; 63 g ai/ha) was 50. For the same molecule, the “phytotoxicity rating SETVI” value ([26]; 250 g ai/ha) was 55.
